This is an account of results in ChEMBL document CHEMBL4831481, “Semisynthesis, Antiplasmodial Activity, and Mechanism of Action Studies of Isocoumarin Derivatives” (J Nat Prod, 2021).

Calls of active or inactive are those of the source. The rule behind the calls is not given here.

One data set has as its system Hemozoin. Put plainly: Inhibition of beta-hematin formation in Plasmodium falciparum assessed as decrease in beta-hematin. Details: scale not given: the % may be the effect or the level left.
The target of data set [1] is T1, DNA gyrase (Escherichia coli) (UniProt P0AES6+P0AES4). Put plainly: Inhibition of Escherichia coli DNA gyrase at 50 uM by fluorescence based assay relative to control. It counts as protein-complex assay.
Data set [2] is described as follows: Selectivity index, ratio of CC50 for African green monkey Vero cells to IC50 for Plasmodium falciparum HB3 infected in human erythrocytes assessed as reduction in parasite growth. It is filed as toxicity, cell-based. As to conditions: read-out: Ratio CC50/IC50.
Data set [3] deals with Plasmodium falciparum. Put plainly: Antiplasmodial activity against Plasmodium falciparum HB3 infected in human erythrocytes assessed as reduction in parasite growth incubated for 48 hrs by PicoGreen DNA fluorescent dye. It counts as functional, organism-based. As to conditions: HB3, 48 h.
The test system of a further data set is Vero. As to the kind of experiment: Cytotoxicity against African green monkey Vero cells assessed as reduction in cell viability by MTT assay. It counts as functional. The settings on record: Chlorocebus sabaeus.
Data set [4] deals with Trypanosoma cruzi. As to the kind of experiment: Antitrypanosomal activity against Trypanosoma cruzi amastigotes infected in African green monkey Vero cells incubated for 5 days by chlorophenol red-beta-D-galactoside based colorimetric analysis. It counts as functional, organism-based. The settings on record: 120 h.
A further data set concerns Erythrocyte. As to the kind of experiment: Hemolytic activity against red blood cells assessed as hemolysis at 10 uM incubated for 24 hrs by spectrophotometric analysis relative to control. It is filed as ADME, cell-based.
Data set [5] relates to Plasmodium falciparum. As to the kind of experiment: Induction of apoptosis in schizont stage Plasmodium falciparum HB3 infected red blood cells assessed as caspase activity measured by FLICA reagent based fluorescence assay. It is filed as functional, organism-based.
The target in data set [6] is T1, DNA gyrase (Escherichia coli). As to the kind of experiment: Inhibition of Escherichia coli DNA gyrase at 10 uM by fluorescence based assay relative to control. It counts as protein-complex assay.
For the next data set, the system named is MCF7. As to the kind of experiment: Growth inhibition of human MCF7 cells at 10 ug/mL relative to control. It is filed as functional. As to conditions: read-out: GI.
In data set [7] the test system is Plasmodium falciparum. As to the kind of experiment: […] activity in schizont stage Plasmodium falciparum HB3 assessed as reduction in mitochondrial membrane potential at 10 uM incubated for 20 mins and measured after 3 hrs by DiOC6-staining based fluorometry analysis relative to control. It counts as functional, organism-based.
The subject of a further data set is Leishmania donovani. As to the kind of experiment: Antileishmanial activity against Leishmania donovani axenic amastigotes at 10 ug/mL assessed as growth inhibition relative to control. It counts as functional. The settings on record: read-out: GI.
Data set [8] concerns Trypanosoma cruzi. As to the kind of experiment: Antitrypanosomal activity against Trypanosoma cruzi amastigotes infected in African green monkey Vero cells incubated for 5 days at 10 ug/mL by chlorophenol red-beta-D-galactoside based colorimetric analysis relative to control. It counts as functional. The settings on record: 120 h, time 5 day, read-out: GI.
The test system of data set [9] is Plasmodium falciparum HB3. As to the kind of experiment: Disruption of cell membrane integrity in schizont stage Plasmodium falciparum HB3 infected red blood cells incubated for 3 hrs at 10 uM and measured by propidium iodide incorporation assay relative to control. It counts as cell membranes.
Data set [10] can be described thus: Disruption of cell membrane integrity in red blood cells incubated for 3 hrs at 10 uM and measured by propidium iodide incorporation assay relative to control. It counts as ADME, cell membranes.
The subject of data set [11] is Plasmodium falciparum. As to the kind of experiment: Induction of reactive oxygen species generation in schizont stage Plasmodium falciparum HB3 incubated for 3 hrs at 10 uM by CM-H2DCFDA dye based fluorescence assay relative to control. It is filed as functional, organism-based.
For data set [12], the target named is T1, DNA gyrase (Escherichia coli). Put plainly: Inhibition of Escherichia coli DNA gyrase at 100 uM by fluorescence based assay relative to control. It counts as protein-complex assay.

On to `CCN(CC)CCCC(C)Nc1ccnc2cc(Cl)ccc12` (configuration not stated), for which, in the data set with Hemozoin, the Activity came out at 68.2%. The inhibition entry in data set [1] was “inactive”.

For `CCC[C@H]1C[C@H]2OC(=O)c3c(cc(OC)c(OC)c3O)[C@H]2O1` [MONOCERIN], the selectivity ratio in data set [2] was 77. In addition, the IC50 in the data set on Plasmodium falciparum [3] stood at 1.13 µM. Also, the CC50 in the data set on Vero was found to be 87.5 µM.

Regarding `CCC[C@H]1C[C@H]2OC(=O)c3c(cc(O)c(O)c3OCc3ccc(C(F)(F)F)cc3)[C@H]2O1`, the IC50 in the data set with Trypanosoma cruzi [4] was 12.4 µM.

With `CCC[C@H]1C[C@H]2OC(=O)c3c(cc(O)c(O)c3OCc3cccc(C(F)(F)F)c3)[C@H]2O1`, inhibition with Trypanosoma cruzi [4] was half-maximal at 13.6 µM (IC50).

Take `CCC[C@H](O)C[C@H]1OC(=O)c2c(cc(OC)c(OC)c2O)[C@H]1OC`: the Activity result was “Non-Toxic” in the data set with Erythrocyte, 51.1% in the data set with Hemozoin and “Non-Toxic” in data set [10]. Further, the outcome (in the data set on Plasmodium falciparum [5]; in data set [9]; in the data set on Plasmodium falciparum [11]) was inactive. In [6], this compound returned an inhibition of 48%. Also, the inhibition of growth at 10 µg/mL in the data set on MCF7, in the data set with Leishmania donovani and in the data set with Trypanosoma cruzi [8] was 0% in each case. The outcome in the data set with Plasmodium falciparum [7] was Active. The selectivity ratio in data set [2] came to 675. In addition, the IC50 in the data set on Plasmodium falciparum [3] was 0.38 µM. In addition, the CC50 in the data set on Vero is 258 µM.

As to `COC(=O)CC[C@H]1C[C@H]2OC(=O)c3c(cc(OC)c(OC)c3O)[C@H]2O1`, the selectivity ratio in [2] is 41. The IC50 with Plasmodium falciparum [3] turned out to be 2.58 µM. Also, the CC50 in the data set with Vero came to 106 µM.

For the compound `CC/C(=C(\c1ccccc1)c1ccc(OCCN(C)C)cc1)c1ccccc1`, the inhibition entry in data set [12] was “Active”.

Take `CCC[C@H]1C[C@H]2OC(=O)c3c(cc(OC)c(OC)c3OC(C)=O)[C@H]2O1`: the selectivity ratio in data set [2] was 161. Moreover, the IC50 in the data set with Plasmodium falciparum [3] worked out at 0.77 µM. Moreover, the CC50 in the data set with Vero amounted to 124 µM.

Take `CCC[C@H]1C[C@H]2OC(=O)c3c(cc(O)c(O)c3OCc3cc(C(F)(F)F)cc(C(F)(F)F)c3)[C@H]2O1`: the IC50 in the data set on Trypanosoma cruzi [4] was found to be 11.9 µM.

Regarding `COc1cc2c(c(O)c1OC)C(=O)O[C@@H]1C[C@H](C[C@H](C)O)O[C@H]21`, the selectivity ratio in [2] is 22. For the same compound, the IC50 in the data set with Plasmodium falciparum [3] is 11.7 µM. In the data set with Vero, the CC50 was found to be 262 µM.

Usually inhibition stands for the relative decrease from the control value, in per cent. As usually defined, the IC50 is the concentration that inhibits the measured activity by half. In general, CC50 refers to the concentration that lowers cell viability or growth by half.
